Test results: PubChem BioAssay AID1963875 (Molecular Pharmacology Branch, DTP, NCI, 2024)

Test system: KRAS-mutant PDC complex spheroid viability
Assay: Anticancer human tumor 186277-243-T-J2-PDC patient-derived colon adenocarcinoma cell line growth inhibition [KRAS2]
Conditions: for IC50: curve of first compound; for viability, T/C: stronger effect = lower value
Procedure, shortened: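 KRAS-mutant tumor cells were grown as spheroids with HUVEC endothelial cells and human MSCs as stroma. Targeted agents were tested alone and with KRAS pathway inhibitors. Doses started at or near clinical Cmax, or 10 microM, descending half-log.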

[1] = second compound 0.1 µM, first compound 0.000316 µM
[2] = second compound 0.1 µM, first compound 0.001 µM
[3] = second compound 0.1 µM, first compound 0.00316 µM
[4] = second compound 0.1 µM, first compound 0.01 µM
[5] = second compound 0.1 µM, first compound 0.0316 µM
[6] = second compound 0.1 µM, first compound 0.1 µM
[7] = second compound 0.316 µM, first compound 0.000316 µM
[8] = second compound 0.316 µM, first compound 0.001 µM
[9] = second compound 0.316 µM, first compound 0.00316 µM
[10] = second compound 0.316 µM, first compound 0.01 µM
[11] = second compound 0.316 µM, first compound 0.0316 µM
[12] = second compound 0.316 µM, first compound 0.1 µM
[13] = second compound 1 µM, first compound 0.000316 µM
[14] = second compound 1 µM, first compound 0.001 µM
[15] = second compound 1 µM, first compound 0.00316 µM
[16] = second compound 1 µM, first compound 0.01 µM
[17] = second compound 1 µM, first compound 0.0316 µM
[18] = second compound 1 µM, first compound 0.1 µM
[19] = second compound 3.16 µM, first compound 0.000316 µM
[20] = second compound 3.16 µM, first compound 0.001 µM
[21] = second compound 3.16 µM, first compound 0.00316 µM
[22] = second compound 3.16 µM, first compound 0.01 µM
[23] = second compound 3.16 µM, first compound 0.0316 µM
[24] = second compound 3.16 µM, first compound 0.1 µM
[25] = second compound 10 µM, first compound 0.000316 µM
[26] = second compound 10 µM, first compound 0.001 µM
[27] = second compound 10 µM, first compound 0.00316 µM
[28] = second compound 10 µM, first compound 0.01 µM
[29] = second compound 10 µM, first compound 0.0316 µM
[30] = second compound 10 µM, first compound 0.1 µM
[31] = second compound 0.1 µM, first compound 0.316 µM
[32] = second compound 0.1 µM, first compound 1 µM
[33] = second compound 0.1 µM, first compound 3.16 µM
[34] = second compound 0.1 µM, first compound 10 µM
[35] = second compound 0.316 µM, first compound 0.316 µM
[36] = second compound 0.316 µM, first compound 1 µM
[37] = second compound 0.316 µM, first compound 3.16 µM
[38] = second compound 0.316 µM, first compound 10 µM
[39] = second compound 1 µM, first compound 0.316 µM
[40] = second compound 1 µM, first compound 1 µM
[41] = second compound 1 µM, first compound 3.16 µM
[42] = second compound 1 µM, first compound 10 µM
[43] = second compound 3.16 µM, first compound 0.316 µM
[44] = second compound 3.16 µM, first compound 1 µM
[45] = second compound 3.16 µM, first compound 3.16 µM
[46] = second compound 3.16 µM, first compound 10 µM
[47] = second compound 10 µM, first compound 0.316 µM
[48] = second compound 10 µM, first compound 1 µM
[49] = second compound 10 µM, first compound 3.16 µM
[50] = second compound 10 µM, first compound 10 µM
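Throughout, for viability, T/C: viability read after seven days of compound exposure; 100% = DMSO vehicle-treated spheroids so lower means less viable.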

SMILES	IC50 (second compound 0.1 µM)	IC50 (second compound 0.316 µM)	IC50 (second compound 1 µM)	IC50 (second compound 3.16 µM)	IC50 (second compound 10 µM)	viability, T/C [1]	viability, T/C [2]	viability, T/C [3]	viability, T/C [4]	viability, T/C [5]	viability, T/C [6]	viability, T/C [7]	viability, T/C [11]	viability, T/C [12]	viability, T/C [17]	viability, T/C [18]	viability, T/C [23]	viability, T/C [24]	viability, T/C [29]	viability, T/C [30]	also measured
CC(C)n1nc(-c2ccc3oc(N)nc3c2)c2c(N)ncnc21 + CC1OCC2(CCN(c3cnc(Sc4ccnc(N)c4Cl)c(N)n3)CC2)C1N	11.9 nM	12.7 nM	8.7 nM	4.98 nM	1.26 nM	107%	101%	85.8%	52.1%	30%	16.1%	113%	30.6%	15.3%	25.3%	12.9%	22.6%	7.43%	13.8%	5.7%	viability, T/C [8]: 100%; viability, T/C [9]: 76.8%; viability, T/C [10]: 57%; viability, T/C [13]: 103%; viability, T/C [14]: 89.7%; viability, T/C [15]: 67.5%; viability, T/C [16]: 49.9%; viability, T/C [19]: 83.8%; viability, T/C [20]: 73.4%; viability, T/C [21]: 55.9%; viability, T/C [22]: 39.5%; viability, T/C [25]: 57.4%; viability, T/C [26]: 58.8%; viability, T/C [27]: 33.7%; viability, T/C [28]: 25.3%
CC1(C)CCC(CN2CCN(c3ccc(C(=O)NS(=O)(=O)c4ccc(NCC5CCOCC5)c([N+](=O)[O-])c4)c(Oc4cnc5[nH]ccc5c4)c3)CC2)=C(c2ccc(Cl)cc2)C1 + CC1OCC2(CCN(c3cnc(Sc4ccnc(N)c4Cl)c(N)n3)CC2)C1N	2270 nM	2350 nM	2130 nM	1750 nM	1550 nM	–	–	–	–	103%	115%	–	128%	136%	140%	115%	98.9%	112%	80.1%	82.7%	viability, T/C [31]: 127%; viability, T/C [32]: 120%; viability, T/C [33]: 23.1%; viability, T/C [34]: 0.76%; viability, T/C [35]: 130%; viability, T/C [36]: 130%; viability, T/C [37]: 22.1%; viability, T/C [38]: 0.38%; viability, T/C [39]: 113%; viability, T/C [40]: 116%; viability, T/C [41]: 16%; viability, T/C [42]: 0.34%; viability, T/C [43]: 100%; viability, T/C [44]: 93.8%; viability, T/C [45]: 3.38%; viability, T/C [46]: 0.22%; viability, T/C [47]: 87.7%; viability, T/C [48]: 79%; viability, T/C [49]: 2.4%; viability, T/C [50]: 0.21%
COc1cc2nccc(Oc3ccc(NC(=O)C4(C(=O)Nc5ccc(F)cc5)CC4)cc3)c2cc1OC + CC1OCC2(CCN(c3cnc(Sc4ccnc(N)c4Cl)c(N)n3)CC2)C1N	1980 nM	2030 nM	1710 nM	821 nM	284 nM	–	–	–	–	106%	111%	–	115%	98.8%	104%	112%	94%	92.8%	63.5%	60.7%	viability, T/C [31]: 105%; viability, T/C [32]: 103%; viability, T/C [33]: 13.7%; viability, T/C [34]: 8.67%; viability, T/C [35]: 109%; viability, T/C [36]: 107%; viability, T/C [37]: 14.6%; viability, T/C [38]: 9.03%; viability, T/C [39]: 104%; viability, T/C [40]: 85.2%; viability, T/C [41]: 9.37%; viability, T/C [42]: 6.62%; viability, T/C [43]: 83.7%; viability, T/C [44]: 43.6%; viability, T/C [45]: 5.99%; viability, T/C [46]: 4.64%; viability, T/C [47]: 48.5%; viability, T/C [48]: 21.8%; viability, T/C [49]: 3.73%; viability, T/C [50]: 3.26%
Cn1ncnc1[C@H]1c2n[nH]c(=O)c3cc(F)cc(c23)N[C@@H]1c1ccc(F)cc1 + CC1OCC2(CCN(c3cnc(Sc4ccnc(N)c4Cl)c(N)n3)CC2)C1N	> 100 nM	> 100 nM	89.2 nM	18.7 nM	4.16 nM	107%	116%	110%	90.5%	84.2%	62.3%	126%	76.8%	58.1%	62.4%	50.6%	41.5%	36%	31.5%	25.4%	viability, T/C [8]: 120%; viability, T/C [9]: 104%; viability, T/C [10]: 84.3%; viability, T/C [13]: 119%; viability, T/C [14]: 103%; viability, T/C [15]: 89.4%; viability, T/C [16]: 71.4%; viability, T/C [19]: 81.9%; viability, T/C [20]: 85.6%; viability, T/C [21]: 76.3%; viability, T/C [22]: 60.2%; viability, T/C [25]: 66.7%; viability, T/C [26]: 68.4%; viability, T/C [27]: 49.4%; viability, T/C [28]: 41.3%
